What all share (assay type): functional
Experiment [1] concerns Mus musculus. Nature of the experiment: In vivo antifungal activity against Aspergillus fumigatus in mice at a dose of 50 mg/kg upon oral administration.
In another experiment the test system is Aspergillus fumigatus. The experiment in a line: In vitro antifungal activity against Aspergillus fumigatus MTU6001.
For another experiment, the system named is Candida albicans. Nature of the experiment: In vitro antifungal activity against Candida albicans KB-8.
The subject of experiment [2] is Mus musculus. Nature of the experiment: In vivo antifungal activity against Candida albicans in mice at a dose of 10 mg/kg upon oral administration.
The subject of experiment [3] is Mus musculus. Nature of the experiment: In vivo antifungal activity against Aspergillus fumigatus in mice at a dose of 100 mg/kg upon oral administration.

In brackets after ≈: the same amount, converted by molar mass.

`C[C@H]1C(Cn2cncn2)(c2ccc(F)cc2F)OCCS1(=O)=O` (single isomer, unassigned): the Mean survival days in the experiment with Mus musculus [1] came out at 1.8 days; in the experiment with Mus musculus [2], 1.2 days. Also, the values for the MIC against Aspergillus fumigatus and in the experiment with Candida albicans were over 100 µg/mL and 3.13 µg/mL (≈ 9.12 µM), respectively.

Turning to `C[C@@H]1SCCOC1(Cn1cncn1)c1ccc(F)cc1F` (single isomer, unassigned), the figures for the Mean survival days in the experiment with Mus musculus [1] and in the experiment with Mus musculus [2] were 1.9 days and 2 days, respectively. The MIC (usually the lowest concentration that inhibits growth of the organism) against Aspergillus fumigatus was 25 µg/mL (≈ 80.3 µM); with Candida albicans, 0.1 µg/mL (≈ 0.321 µM).

For `CC1(C)SCCOC1(Cn1cncn1)c1ccc(F)cc1F` (single isomer, unassigned), the Mean survival days came to 9.8 days with Mus musculus [1] and 8.6 days with Mus musculus [2]. For the same compound, the MIC against Aspergillus fumigatus was 3.13 µg/mL (≈ 9.62 µM); against Candida albicans, 0.1 µg/mL (≈ 0.307 µM).

In the case of `C[C@H]([C@](O)(Cn1cncn1)c1ccc(F)cc1F)S(C)(=O)=O` [GENACONAZOLE], the Mean survival days in the experiment with Mus musculus [1] and in the experiment with Mus musculus [2] was 10 days throughout. Also, the figures for the MIC in the experiment on Aspergillus fumigatus and in the experiment with Candida albicans were 25 µg/mL (≈ 75.5 µM) and 0.39 µg/mL (≈ 1.18 µM), respectively.

On to `CC1COC(Cn2cncn2)(c2ccc(F)cc2F)C(C)(C)S1(=O)=O` (single isomer, unassigned), for which the figures for the Mean survival days with Mus musculus [1] and in the experiment on Mus musculus [2] were 9.4 days and 10 days, respectively. Further, the MIC was 12.5 µg/mL (≈ 33.7 µM) in the experiment with Aspergillus fumigatus and 0.39 µg/mL (≈ 1.05 µM) with Candida albicans.

Consider `OC(Cn1cncn1)(Cn1cncn1)c1ccc(F)cc1F` [FLUCONAZOLE], for which the Mean survival days with Mus musculus [3] came to 2.8 days; in the experiment with Mus musculus [2], 10 days. Besides, the MIC against Aspergillus fumigatus amounted to 400 µg/mL (≈ 1310 µM); with Candida albicans it was 0.78 µg/mL (≈ 2.55 µM).

For the compound `CC1(C)C(Cn2cncn2)(c2ccc(F)cc2F)OCCS1(=O)=O` (single isomer, unassigned), the Mean survival days was determined as 10 days in the experiment on Mus musculus [1] and 9.4 days in the experiment with Mus musculus [2]. The MIC worked out at 100 µg/mL (≈ 280 µM) in the experiment with Aspergillus fumigatus and 3.13 µg/mL (≈ 8.76 µM) in the experiment on Candida albicans.

As for `C[C@H]1SCCOC1(Cn1cncn1)c1ccc(F)cc1F` (single isomer, unassigned), the figures for the Mean survival days in the experiment with Mus musculus [1] and in the experiment with Mus musculus [2] were 1.5 days and 4.9 days, respectively. In addition, the figures for the MIC against Aspergillus fumigatus and against Candida albicans were 50 µg/mL (≈ 161 µM) and 0.2 µg/mL (≈ 0.642 µM), respectively.

Regarding `C[C@@H]1C(Cn2cncn2)(c2ccc(F)cc2F)OCCS1(=O)=O` (single isomer, unassigned), the results for the Mean survival days with Mus musculus [1] and in the experiment with Mus musculus [2] were 1.1 days and 6.9 days, respectively. Moreover, the MIC against Aspergillus fumigatus is over 100 µg/mL; in the experiment with Candida albicans it was 6.25 µg/mL (≈ 18.2 µM).
